Results reported in patent US9169254B2, “Spiroimidazolone derivative” (Chugai Seiyaku Kabushiki Kaisha, priority 2009, dated 2015).

Biological target: T1, human PTH1 receptor (Homo sapiens, UniProt Q03431)
T1 sequence (Q03431 27-593): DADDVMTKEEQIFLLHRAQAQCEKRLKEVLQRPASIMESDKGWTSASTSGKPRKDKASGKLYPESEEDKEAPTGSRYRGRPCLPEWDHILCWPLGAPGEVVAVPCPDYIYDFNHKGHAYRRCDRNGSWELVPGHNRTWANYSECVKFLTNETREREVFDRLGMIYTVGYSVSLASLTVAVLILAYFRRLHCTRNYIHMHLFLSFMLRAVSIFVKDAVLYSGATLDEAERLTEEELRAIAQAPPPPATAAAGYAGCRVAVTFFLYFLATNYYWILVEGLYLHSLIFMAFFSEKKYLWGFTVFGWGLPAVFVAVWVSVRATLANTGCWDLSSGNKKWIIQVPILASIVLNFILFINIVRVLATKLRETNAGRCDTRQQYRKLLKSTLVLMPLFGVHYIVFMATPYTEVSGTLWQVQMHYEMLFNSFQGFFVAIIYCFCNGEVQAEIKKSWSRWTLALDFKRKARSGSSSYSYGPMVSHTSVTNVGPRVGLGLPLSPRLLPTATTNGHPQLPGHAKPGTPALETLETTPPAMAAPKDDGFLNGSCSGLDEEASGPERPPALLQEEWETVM
Experiment: In vitro cAMP signal activity in HKRK-B7 cells (LLC-PK1 cells overexpressing the human PTH1 receptor)
Type: cell-based

[1] = HKRK-B7 cells, compound at 1×10^−3 M, cAMP produced as percentage of that produced by hPTH(1-34) at 100 nM

Row | Compound | cAMP production activity (%) [1] | cAMP production activity (%) (0.1 µM)
1 | Cc1cc(CN(CCCN(C)C)C(=O)OC(C)(C)C)ccc1/C=C/S(=O)(=O)N1CCC2(CC1)N=C(C1CCCCC1)NC2=O [Compound 569, {4-[(E)-2-(2-cyclohexyl-4-oxo-1,3,8-triaza-spiro[4.5]dec-1-ene-8-sulfonyl)-vinyl]-3-methyl-benzyl}-(3-dimethylamino-propyl)-carbamic acid tert-butyl ester] | 4.2% | 
2 | Cc1cc(N(C)C(N)=O)cc(C)c1C1CC1S(=O)(=O)N1CCC2(CC1)N=C(C1CCC(C)CC1)NC2=O (stereo not shown) [Compound 740, 1-(3,5-Dimethyl-4-{2-[2-(4-methyl-cyclohexyl)-4-oxo-1,3,8-triaza-spiro[4.5]dec-1-ene-8-sulfonyl]-cyclopropyl}-phenyl)-1-methyl-urea] | 123% | 
3 | Cc1cc(C(=O)N2CCC(O)CC2)cc(C)c1/C=C/S(=O)(=O)N1CCC2(CC1)N=C(c1cccc(OCCCC(F)(F)C(F)(F)F)c1)NC2=O [Compound 1158, 8-{(E)-2-[4-(4-Hydroxy-piperidine-1-carbonyl)-2,6-dimethyl-phenyl]-ethenesulfonyl}-2-[3-(4,4,5,5,5-pentafluoro-pentyloxy)-phenyl]-1,3,8-triaza-spiro[4.5]dec-1-en-4-one] | 103% | 
4 | Cc1cc(N(C)C(N)=O)cc(C)c1CCS(=O)(=O)N1CCC2(CC1)N=C(CCCCCC(F)(F)C(F)(F)F)NC2=O [Compound 1043, 1-(3,5-Dimethyl-4-{2-[4-oxo-2-(6,6,7,7,7-pentafluoro-heptyl)-1,3,8-triaza-spiro[4.5]dec-1-ene-8-sulfonyl]-ethyl}-phenyl)-1-methyl-urea] | 99% | 
5 | Cc1cc2ccc1CCS(=O)(=O)N1CCC3(CC1)N=C(NC3=O)c1cc(cc(C(F)(F)F)c1)OCCOCCOCCN(C)C2=O [Compound 1438] | 40% | 
6 | Cc1cc(N(C(N)=O)C(C)C)cc(C)c1CCS(=O)(=O)N1CCC2(CC1)N=C(C1CCC(C)CC1)NC2=O (stereo not shown) [Compound 828, 1-(3,5-dimethyl-4-{2-[2-(4-methyl-cyclohexyl)-4-oxo-1,3,8-triaza-spiro[4.5]dec-1-ene-8-sulfonyl]-ethyl}-phenyl)-1-isopropyl-urea] | 92% | 
7 | Cc1cc(C(=O)N2CCN(CCF)CC2)cc(C)c1CCS(=O)(=O)N1CCC2(CC1)N=C(C1CCC(CCC(F)(F)F)CC1)NC2=O (stereo not shown) [Compound 761, 8-(2-{4-[4-(2-fluoro-ethyl)-piperazine-1-carbonyl]-2,6-dimethyl-phenyl}-ethanesulfonyl)-2-[4-(3,3,3-trifluoro-propyl)-cyclohexyl]-1,3,8-triaza-spiro[4.5]dec-1-en-4-one] | 104% | 
8 | Cc1cc(N(C)C(=O)OCCO)cc(C)c1/C=C/S(=O)(=O)N1CCC2(CC1)N=C(c1cccc(OC(F)(F)F)c1)NC2=O [Compound 1012, (3,5-Dimethyl-4-{(E)-2-[4-oxo-2-(3-trifluoromethoxy-phenyl)-1,3,8-triaza-spiro[4.5]dec-1-ene-8-sulfonyl]-vinyl}-phenyl)-methyl-carbamic acid 2-hydroxy-ethyl ester] | 87% | 
9 | Cc1cc(S(=O)(=O)N2CCC3(CC2)N=C(C2CCCCC2)NC3=O)c(C)s1 [Compound 64, 2-cyclohexyl-8-(2,5-dimethyl-thiophene-3-sulfonyl)-1,3,8-triaza-spiro[4.5]dec-1-en-4-one] | 45% | 
10 | Cc1cc(C(=O)N(C)C)ccc1CCS(=O)(=O)N1CCC2(CC1)N=C(Nc1ccc(C(F)(F)F)cc1)NC2=O [Compound 1396, 3,N,N-Trimethyl-4-{2-[4-oxo-2-(4-trifluoromethyl-phenylamino)-1,3,8-triaza-spiro[4.5]dec-1-ene-8-sulfonyl]-ethyl}-benzamide] |  | 133%
11 | Cc1ccc(C(=O)N(C)C)cc1CCS(=O)(=O)N1CCC2(CC1)N=C(c1cccc(OC(F)(F)F)c1)NC2=O [Compound 412, 4,N,N-Trimethyl-3-{2-[4-oxo-2-(3-trifluoromethoxy-phenyl)-1,3,8-triaza-spiro[4.5]dec-1-ene-8-sulfonyl]-ethyl}-benzamide] | 54% | 
12 | Cc1cc(C(=O)N2CCC(C)(O)CC2)cc(C)c1/C=C/S(=O)(=O)N1CCC2(CC1)N=C(c1ccc(C(F)(F)F)c(OCC(F)(F)C(F)(F)F)c1)NC2=O [Compound 1228, 8-{(E)-2-[4-(4-hydroxy-4-methyl-piperidine-1-carbonyl)-2,6-dimethyl-phenyl]-ethenesulfonyl}-2-[3-(2,2,3,3,3-pentafluoro-propoxy)-4-trifluoromethyl-phenyl]-1,3,8-triaza-spiro[4.5]dec-1-en-4-one] | 68% | 
13 | Cc1cc(C(=O)N2C[C@@H](C)N[C@@H](C)C2)cc(C)c1/C=C/S(=O)(=O)N1CCC2(CC1)N=C(c1ccc(F)c(C(F)(F)F)c1)NC2=O [Compound 969, 8-{(E)-2-[4-((3R,5S)-3,5-dimethyl-piperazine-1-carbonyl)-2,6-dimethyl-phenyl]-ethenesulfonyl}-2-(4-fluoro-3-trifluoromethyl-phenyl)-1,3,8-triaza-spiro[4.5]dec-1-en-4-one] | 45% | 
14 | Cc1cc(C(=O)N2CCC(O)(CF)CC2)cc(C)c1/C=C/S(=O)(=O)N1CCC2(CC1)N=C(c1ccc(OCCCC(F)(F)C(F)(F)F)c(C(F)(F)F)c1)NC2=O [Compound 1252, 8-{(E)-2-[4-(4-fluoromethyl-4-hydroxy-piperidine-1-carbonyl)-2,6-dimethyl-phenyl]-ethenesulfonyl}-2-[4-(4,4,5,5,5-pentafluoro-pentyloxy)-3-trifluoromethyl-phenyl]-1,3,8-triaza-spiro[4.5]dec-1-en-4-one] | 72% | 
15 | Cc1cc(C(=O)N2CC(F)(F)C(F)(F)C2)ccc1CCS(=O)(=O)N1CCC2(CC1)N=C(c1cccc(C(F)(F)F)c1)NC2=O [Compound 368, 8-{2-[2-methyl-4-(3,3,4,4-tetrafluoro-pyrrolidine-1-carbonyl)-phenyl]-ethanesulfonyl}-2-(3-trifluoromethyl-phenyl)-1,3,8-triaza-spiro[4.5]dec-1-en-4-one] | 38% | 
16 | Cc1cc(C(=O)N2CCC(C)(O)CC2)cc(C)c1/C=C/S(=O)(=O)N1CCC2(CC1)N=C(c1ccc(C(F)(F)F)c(OC(C)(C)C(F)(F)F)c1)NC2=O [Compound 1209, 8-{(E)-2-[4-(4-hydroxy-4-methyl-piperidine-1-carbonyl)-2,6-dimethyl-phenyl]-ethenesulfonyl}-2-[3-(2,2,2-trifluoro-1,1-dimethyl-ethoxy)-4-trifluoromethyl-phenyl]-1,3,8-triaza-spiro[4.5]dec-1-en-4-one] | 94% | 
17 | Cc1cc(N2C(=O)NC(C)(C)C2=O)ccc1CCS(=O)(=O)N1CCC2(CC1)N=C(C1CCC(CCC(F)(F)F)CC1)NC2=O (stereo not shown) [Compound 864, 5,5-dimethyl-3-[3-methyl-4-(2-{4-oxo-2-[4-(3,3,3-trifluoro-propyl)-cyclohexyl]-1,3,8-triaza-spiro[4.5]dec-1-ene-8-sulfonyl}-ethyl)-phenyl]-imidazolidine-2,4-dione] | 100% | 
18 | NCC(=O)N1CCCC(C2=NC3(CCN(S(=O)(=O)c4cccc(Cl)c4)CC3)C(=O)N2)C1 (stereo not shown) [Compound 442, 2-[1-(2-Amino-acetyl)-piperidin-3-yl]-8-(3-chloro-benzenesulfonyl)-1,3,8-triaza-spiro[4.5]dec-1-en-4-one] | 2.5% | 
19 | Cc1cc(C(=O)N(C)C)ccc1CCS(=O)(=O)N1CCC2(CC1)N=C(c1cccc(COC(C)C)c1)NC2=O [Compound 130, 4-{2-[2-(3-isopropoxymethyl-phenyl)-4-oxo-1,3,8-triaza-spiro[4.5]dec-1-ene-8-sulfonyl]-ethyl}-3,N,N-trimethyl-benzamide] | 65% | 
20 | Cc1cc(N(C)C(N)=O)cc(C)c1CCS(=O)(=O)N1CCC2(CC1)N=C(c1cccc(SC(F)(F)F)c1)NC2=O [Compound 1306, 1-(3,5-dimethyl-4-{2-[4-oxo-2-(3-trifluoromethylsulfanyl-phenyl)-1,3,8-triaza-spiro[4.5]dec-1-ene-8-sulfonyl]-ethyl}-phenyl)-1-methyl-urea] | 159% | 
21 | Cc1cc(N(C)C(N)=O)cc(C)c1CCS(=O)(=O)N1CCC2(CC1)N=C(CCCCCCCCCC(N)=O)NC2=O [Compound 1363, 10-(8-{2-[2,6-dimethyl-4-(1-methyl-ureido)-phenyl]-ethanesulfonyl}-4-oxo-1,3,8-triaza-spiro[4.5]dec-1-en-2-yl)-decanoic acid amide] | 80% | 
22 | Cc1cc(C(=O)N2CCN(c3ccccn3)CC2)ccc1CCS(=O)(=O)N1CCC2(CC1)N=C(c1cccc(C(F)(F)F)c1)NC2=O [Compound 361, 8-{2-[2-methyl-4-(4-pyridin-2-yl-piperazine-1-carbonyl)-phenyl]-ethanesulfonyl}-2-(3-trifluoromethyl-phenyl)-1,3,8-triaza-spiro[4.5]dec-1-en-4-one] | 82% | 
